Results published in patent US20090215710A1, “CARBOHYDRATE BASED TOLL-LIKE RECEPTOR (TLR) ANTAGONISTS” (RELIANCE LIFE SCIENCES PVT. LTD., priority 2007, published 2009).

Assays:
TNF = experiment: Pre-screen for TNF inhibition activity of synthesized molecules (Table 1); type: cell-based
[1] = Cell viability in pre-screen (Table 1); type: cell-based

Molecule	% TNF Inhibition (TNF; 1 uM)	% TNF Inhibition (TNF; 10 uM)	% TNF Inhibition (TNF; 50 uM)	% TNF Inhibition (TNF; 100 uM)	% Viability ([1]; 1 uM)	% Viability ([1]; 10 uM)	% Viability ([1]; 50 uM)	% Viability ([1]; 100 uM)
2,3-Di-O-acetyl-4-O-chloroacetyl-6-O-levulinoyl-β-D-glucopyranosyl)-(1-3)-2-deoxy-2-trichloroacetamido-α/β-D-glucopyranoside [RSCL-0632]	0%	0%	0%	30%	115%	113%	94%	84%
COc1ccc(O[C@@H]2O[C@H](COC(C)=O)[C@@H](OC(C)=O)[C@H](OC(C)=O)[C@H]2OC(C)=O)cc1 [RSCL-0367, 1-O-(p-Methoxyphenyl)-2,3,4,6-tetra-O-acetyl-β-D-Glucopyranoside]	0%	0%	0%	0%	114%	118%	105%	116%
COc1ccc(O[C@@H]2O[C@@H]3COC(c4ccccc4)O[C@H]3[C@H](O)[C@H]2O)cc1 (stereo partly drawn) [RSCL-0370, 1-O-(p-Methoxyphenyl)-4,6-O-benzylidene-β-D-glucopyranoside]	0%	0%	0%	16%	115%	120%	108%	107%
COc1ccc(O[C@@H]2O[C@H](COC(=O)CCC(C)=O)[C@@H](OC(=O)CCl)[C@H](OC(C)=O)[C@H]2OC(C)=O)cc1 [RSCL-0393, 1-O-(p-Methoxyphenyl)-2,3-di-O-acetyl-4-O-chloroacetyl-6-O-levulinoyl-β-D-glucopyranoside]	2%	13%	18%	76%	84%	85%	81%	86%
COc1ccc(O[C@H]2O[C@@H]3COC(c4ccccc4)O[C@H]3[C@H](O)[C@H]2NC(=O)C(Cl)(Cl)Cl)cc1 (stereo partly drawn) [RSCL-0400, 1-O-(p-Methoxyphenyl)-2-deoxy-2-trichloroacetamido-4,6-O-benzylidene-α-D-glucopyranoside]	0%	0%	0%	0%	93%	82%	70%	63%
COc1ccc(O[C@H]2O[C@@H]3COC(c4ccccc4)O[C@H]3[C@H](O[C@@H]3O[C@H](COC(=O)CCC(C)=O)[C@@H](O)[C@H](OC(C)=O)[C@H]3OC(C)=O)[C@H]2NC(=O)C(Cl)(Cl)Cl)cc1 (stereo partly drawn) [RSCL-0440, p-Methoxy phenyl-O-(2,3-di-O-acetyl-6-O-levulinoyl-β-D-glucopyranosyl)-(1-3)-2-deoxy-2-trichloroacetamido-4,6-O-benzylidene-α D-glucopyranoside]	34%	42%	46%	47%	114%	115%	129%	119%
COc1ccc(O[C@H]2O[C@@H]3COC(c4ccccc4)O[C@H]3[C@H](O[C@@H]3O[C@H](COC(=O)CCC(C)=O)[C@@H](OS(=O)(=O)O)[C@H](OC(C)=O)[C@H]3OC(C)=O)[C@H]2NC(=O)C(Cl)(Cl)Cl)cc1 (stereo partly drawn) [RSCL-0621, p-Methoxy phenyl-O-(2,3-di-O-acetyl-4-O-sulfo-6-O-levulinoyl-β-D-glucopyranosyl)-(1-3)-2-deoxy-2-trichloroacetamido-4,6-O-benzylidene-α-D-glucopyranoside]	36%	38%	49%	66%	90%	95%	98%	96%
COc1ccc(O[C@H]2O[C@@H]3COC(c4ccccc4)O[C@H]3[C@H](O[C@@H]3O[C@H](COC(=O)CCC(C)=O)[C@@H](OC(C)=O)[C@H](OC(C)=O)[C@H]3OC(C)=O)[C@H]2NC(=O)C(Cl)(Cl)Cl)cc1 (stereo partly drawn) [RSCL-0625, p-Methoxy phenyl-O-(2,3,4-tri-O-acetyl-6-O-levulinoyl-β-D-glucopyranosyl)-(1-3)-2-deoxy-2-trichloroacetamido-4,6-O-benzylidene-α-D-glucopyranoside]	31%	27%	22%	31%	90%	96%	99%	97%
COc1ccc(O[C@H]2O[C@@H]3COC(c4ccccc4)O[C@H]3[C@H](O[C@@H]3O[C@H](CO)[C@@H](OC(C)=O)[C@H](OC(C)=O)[C@H]3OC(C)=O)[C@H]2NC(=O)C(Cl)(Cl)Cl)cc1 (stereo partly drawn) [RSCL-0626, p-Methoxy phenyl-O-(2,3,4-tri-O-acetyl-β-D-glucopyranosyl)-(1-3)-2-deoxy-2-trichloroacetamido-4,6-O-benzylidene-α-D-glucopyranoside]	39%	43%	13%	52%	97%	92%	95%	89%
CC(=O)CCC(=O)OC[C@H]1O[C@@H](O[C@H]2[C@@H]3OC(c4ccccc4)OC[C@H]3OC(O)[C@@H]2NC(=O)C(Cl)(Cl)Cl)[C@H](OC(C)=O)[C@@H](OC(C)=O)[C@@H]1OC(=O)CCl (stereo partly drawn) [RSCL-0627, 2,3-Di-O-acetyl-4-O-chloroacetyl-6-O-levulinoyl-β-D-glucopyranosyl-(1-3)-2-deoxy-2-trichloroacetamido-4,6-O-benzylidene-α/β-D-glucopyranoside]	0%	80%	104%	100%	105%	90%	33%	13%
COc1ccc(O[C@H]2O[C@@H]3COC(c4ccccc4)O[C@H]3[C@H](O[C@@H]3O[C@H](CO)[C@@H](O)[C@H](OC(C)=O)[C@H]3OC(C)=O)[C@H]2NC(=O)C(Cl)(Cl)Cl)cc1 (stereo partly drawn) [RSCL-0628, p-Methoxy phenyl-O-(2,3-di-O-acetyl-β-D-glucopyranosyl)-(1-3)-2-deoxy-2-trichloroacetamido-4,6-O-benzylidene-α-D-glucopyranoside]	0%	92%	102%	100%	89%	60%	10%	8%
COc1ccc(O[C@H]2O[C@@H]3COC(c4ccccc4)O[C@H]3[C@H](O[C@@H]3O[C@H](CO)[C@@H](OC(=O)CCl)[C@H](OC(C)=O)[C@H]3OC(C)=O)[C@H]2NC(=O)C(Cl)(Cl)Cl)cc1 (stereo partly drawn) [RSCL-0629, p-Methoxy phenyl-O-(2,3-di-O-acetyl-4-O-chloroacetyl-β-D-glucopyranosyl)-(1-3)-2-deoxy-2-trichloroacetamido-4,6-O-benzylidene-α-D-glucopyranoside]	0%	94%	102%	100%	99%	57%	13%	11%
COc1ccc(O[C@H]2O[C@@H]3COC(c4ccccc4)O[C@H]3[C@H](O[C@@H]3O[C@H](COC(=O)CCl)[C@@H](OC(C)=O)[C@H](OC(C)=O)[C@H]3OC(C)=O)[C@H]2NC(=O)C(Cl)(Cl)Cl)cc1 (stereo partly drawn) [RSCL-0630, p-Methoxy phenyl-O-(2,3,4-tri-O-acetyl-6-O-chloroacetyl-β-D-glucopyranosyl)-(1-3)-2-deoxy-2-trichloroacetamido-4,6-O-benzylidene-α-D-glucopyranoside]	31%	36%	61%	0%	95%	88%	85%	81%
COc1ccc(OC2OC3COC(c4ccccc4)OC3C(OC3OC(COC(=O)CCl)C(OC(=O)CCl)C(OC(C)=O)C3OC(C)=O)C2NC(=O)C(Cl)(Cl)Cl)cc1 [RSCL-0631, p-Methoxy phenyl-O-(2,3-di-O-acetyl-4,6-di-O-chloroacetyl-β-D-glucopyranosyl)-(1-3)-2-deoxy-2-trichloroacetamido-4,6-O-benzylidene-α-D-glucopyranoside]	77%	38%	92%	99%	95%	70%	20%	8%
p-Methoxy phenyl-2-deoxy-2-trichloroacetamido-4,6-O-benzylidene-β-D-glucopyranosyl)-(1-4)-O-(2,3-di-O-acetyl-6-O-levulinoyl-β-D-glucopyranoside [RSCL-0635]	0%	0%	0%	0%	97%	89%	82%	81%
